Tests used:
DGKa = DGKa (Homo sapiens (Human), UniProt P23743); experiment: DGK ADP-Glo Kinase Assay (DGKa); format: biochemical; conditions: 10 nM DGKa, 15 uM ATP
Description: (§1) Luminescence was recorded using an Tecan SPARK microplate reader.

DGKz = DGKz (Homo sapiens (Human), UniProt Q13574); experiment: DGK ADP-Glo Kinase Assay (DGKz); format: biochemical; conditions: 5 nM DGKz, 15 uM ATP
Description: as §1

Chain of DGKa (P23743 whole entry): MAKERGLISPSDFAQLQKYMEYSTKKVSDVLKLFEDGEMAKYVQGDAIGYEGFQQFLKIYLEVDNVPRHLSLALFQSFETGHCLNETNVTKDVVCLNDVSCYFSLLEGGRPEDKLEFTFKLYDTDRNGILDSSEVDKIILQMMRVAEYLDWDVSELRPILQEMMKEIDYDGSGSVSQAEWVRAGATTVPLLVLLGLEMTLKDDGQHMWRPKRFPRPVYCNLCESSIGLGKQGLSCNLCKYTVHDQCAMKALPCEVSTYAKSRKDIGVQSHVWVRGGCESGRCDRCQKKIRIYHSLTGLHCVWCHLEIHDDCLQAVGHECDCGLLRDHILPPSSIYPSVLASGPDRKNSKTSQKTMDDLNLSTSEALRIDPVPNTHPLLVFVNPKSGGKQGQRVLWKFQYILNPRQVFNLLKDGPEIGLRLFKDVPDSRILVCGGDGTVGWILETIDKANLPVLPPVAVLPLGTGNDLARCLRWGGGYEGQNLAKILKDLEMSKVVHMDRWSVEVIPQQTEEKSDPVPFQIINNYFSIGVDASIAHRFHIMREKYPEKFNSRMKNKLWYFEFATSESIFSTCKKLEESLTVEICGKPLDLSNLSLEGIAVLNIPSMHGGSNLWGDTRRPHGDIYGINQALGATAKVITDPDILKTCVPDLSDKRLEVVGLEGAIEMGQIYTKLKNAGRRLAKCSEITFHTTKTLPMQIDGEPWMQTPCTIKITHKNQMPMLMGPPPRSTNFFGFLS
Chain of DGKz (Q13574 whole entry): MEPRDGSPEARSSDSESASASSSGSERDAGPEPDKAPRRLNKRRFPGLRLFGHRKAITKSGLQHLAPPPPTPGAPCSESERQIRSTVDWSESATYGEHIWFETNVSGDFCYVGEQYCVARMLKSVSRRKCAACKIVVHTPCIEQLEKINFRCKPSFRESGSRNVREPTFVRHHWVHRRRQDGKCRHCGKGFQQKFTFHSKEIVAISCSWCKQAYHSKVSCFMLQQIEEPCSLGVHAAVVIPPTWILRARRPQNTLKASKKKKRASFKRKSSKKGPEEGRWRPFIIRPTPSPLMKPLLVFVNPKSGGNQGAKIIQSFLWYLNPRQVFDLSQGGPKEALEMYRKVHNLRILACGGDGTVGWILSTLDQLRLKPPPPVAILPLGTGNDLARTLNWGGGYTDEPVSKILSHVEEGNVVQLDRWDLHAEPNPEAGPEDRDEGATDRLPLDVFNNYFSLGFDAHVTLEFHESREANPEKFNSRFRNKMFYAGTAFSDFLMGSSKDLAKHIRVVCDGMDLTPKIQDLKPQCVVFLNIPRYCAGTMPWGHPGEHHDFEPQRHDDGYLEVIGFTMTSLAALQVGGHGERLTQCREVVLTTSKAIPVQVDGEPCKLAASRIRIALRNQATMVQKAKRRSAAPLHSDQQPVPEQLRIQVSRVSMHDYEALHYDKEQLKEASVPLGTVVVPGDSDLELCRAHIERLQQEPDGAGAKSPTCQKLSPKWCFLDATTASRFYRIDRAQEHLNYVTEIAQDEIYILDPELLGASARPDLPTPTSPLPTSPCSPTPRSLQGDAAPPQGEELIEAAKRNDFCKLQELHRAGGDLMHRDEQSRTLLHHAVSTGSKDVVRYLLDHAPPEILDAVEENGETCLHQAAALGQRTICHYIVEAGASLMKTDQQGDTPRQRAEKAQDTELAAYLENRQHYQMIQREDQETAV

| SMILES | IC50 (DGKa) | IC50 (DGKz) |
| --- | --- | --- |
| CC[C@@H]1C[C@H](c2nc3cc(C)ccc3o2)CCN1c1nc(=O)n(C)c2cc(O[C@H]3CCOC3)c(Cl)cc12 [Compound 91] | < 100 nM | > 1000 nM |
| CC[C@@H]1CN(c2nc3nncn3c3ccc(C#N)nc23)[C@@H](C)CN1[C@@H](CC)c1ccc(SC(F)(F)F)cc1 (stereo in doubt) [Compound 66] | < 100 nM | < 100 nM |
| CCC(c1ccc(C23CC(C2)C3)nc1)N1C[C@H](CC)N(c2nc3nncn3c3ccc(C#N)nc23)C[C@H]1CC (some centres unmarked) [Compound 104] | < 100 nM | < 100 nM |
| CC[C@H]1CN([C@@H](C)c2ccc(S(F)(F)(F)(F)F)cc2)[C@H](CC)CN1c1nc2nncn2c2ccc(C#N)nc12 (stereo in doubt) [Compound 88] | < 100 nM | < 100 nM |
| CC[C@H]1CN([C@@H](CC)c2ccc(C(F)(F)F)nc2)[C@H](CC)CN1c1nc2nncn2c2ccc(C#N)nc12 (stereo in doubt) [Compound 111] | < 100 nM | < 100 nM |
| CC[C@@H]1C[C@H](Oc2ccc(OC(F)(F)F)cc2)CCN1c1nc(=O)n(C)c2ccc(C#N)nc12 [Compound 16] | 100 to 1000 nM | < 100 nM |
| CC[C@H]1CN(C(C)c2ccc(SC(F)(F)F)cc2)[C@H](CC)CN1c1nc2nncn2c2ccc(C#N)nc12 (some centres unmarked) [Compound 51] | < 100 nM | < 100 nM |
| CC[C@@H]1CN(c2nc3nncn3c3ccc(C#N)nc23)[C@@H](C)CN1[C@@H](CC)c1ccc(S(F)(F)(F)(F)F)cc1 (stereo in doubt) [Compound 80] | < 100 nM | < 100 nM |
| Cn1c(=O)nc(N2CCC3(CC2)CC(c2cccc(C(F)(F)F)c2)=NO3)c2nc(C#N)ccc21 [Compound 47] | < 100 nM | < 100 nM |
| CC[C@H]1CN([C@@H](CC)c2ccc(SC(F)(F)F)cc2)[C@H](CC)CN1c1nc2nncn2c2ccc(C#N)nc12 (single isomer, unassigned) [Compound 68] | < 100 nM | 100 to 1000 nM |
| CC[C@H]1CN([C@H](CC)c2cccc(S(F)(F)(F)(F)F)c2)[C@H](CC)CN1c1nc(=O)n(C)c2ccc(C#N)nc12 (stereo in doubt) [Compound 56] | 100 to 1000 nM | 100 to 1000 nM |
| CC[C@H]1CN([C@H](c2ccc(S(F)(F)(F)(F)F)cc2)c2nc(C3CC3)cs2)[C@H](CC)CN1c1nc(=O)n(C)c2ccc(C#N)nc12 [Compound 98] | < 100 nM | < 100 nM |
| CC[C@H]1CN([C@H](CC)c2ccc(C(F)(F)F)cc2)[C@H](CC)CN1c1nc2nncn2c2ccc(C#N)nc12 (single isomer, unassigned) [Compound 35] | < 100 nM | 100 to 1000 nM |
| CC[C@@H]1CN(c2nc(=O)n(C)c3ccc(C#N)nc23)[C@@H](C)CN1[C@H](c1ccc(F)cc1)c1ccc(SC(F)(F)F)cn1 [Compound 73] | < 100 nM | < 100 nM |
| CC[C@H]1C[C@]2(CCN1c1nc(=O)n(C)c3ccc(C#N)nc13)CC(c1ccc(OC(F)(F)F)cc1)=NO2 (stereo in doubt) [Compound 74] | < 100 nM | > 1000 nM |
| CC[C@H]1C[C@H](Oc2ccc(OC(F)(F)F)cc2)CCN1c1nc(=O)n(C)c2ccc(C#N)nc12 (stereo in doubt) [Compound 18] | < 100 nM | 100 to 1000 nM |
| Cn1c(=O)nc(N2CCCc3c(C#CC4CC4)cccc32)c2nc(C#N)ccc21 [Compound 42] | < 100 nM | 100 to 1000 nM |
| Cn1c(=O)c(C(N)=O)c(N2CCC3(CN(c4ccc(OC(F)(F)F)cc4)C3)C2)c2nc(C#N)ccc21 [Compound 15] | < 100 nM | > 1000 nM |
| CC[C@H]1CN([C@H](CC)c2cccc(C(F)(F)F)c2)[C@H](CC)CN1c1nc2nncn2c2ccc(C#N)nc12 (stereo in doubt) [Compound 106] | < 100 nM | 100 to 1000 nM |
| Cc1ccc2oc(C3CCN(c4nc(=O)n(C)c5cc(O[C@H]6CCOC6)c(Cl)cc45)CC3)nc2c1 [Compound 33] | < 100 nM | < 100 nM |
| CC[C@H]1CN([C@H](C)c2ccc(S(F)(F)(F)(F)F)cc2)[C@H](CC)CN1c1nc2nncn2c2ccc(C#N)nc12 (stereo in doubt) [Compound 89] | < 100 nM | 100 to 1000 nM |
| CC[C@H]1CN([C@@H](C)c2ccc(S(F)(F)(F)(F)F)cc2)[C@H](CC)CN1c1nc(=O)n(C)c2ccc(C#N)nc12 (stereo in doubt) [Compound 62] | < 100 nM | 100 to 1000 nM |
| Cc1ccc2oc(C3CCN(c4nc(=O)n(C)c5ccc(C#N)nc45)CC3)nc2c1 [Compound 20] | > 1000 nM | > 1000 nM |
| CC[C@@H]1CN(c2nc3nncn3c3ccc(C#N)nc23)[C@@H](CC)CN1C(=O)Nc1ccc(C(F)(F)F)cc1 [Compound 95] | < 100 nM | 100 to 1000 nM |
| CC[C@@H]1CN(c2nc3nncn3c3ccc(C#N)nc23)[C@@H](C)CN1[C@H](CC)c1ccc(S(F)(F)(F)(F)F)cc1 (stereo in doubt) [Compound 90] | < 100 nM | 100 to 1000 nM |

From US20250215014A1, “KINASE INHIBITORS, PREPARATION METHODS AND USES THEREOF” (InventisBio Co., Ltd., priority 2022, published 2025)
